Measurements taken from patent publication US20090239839A1, “RECEPTOR ANTAGONIST” (TAKEDA PHARMACEUTICAL COMPANY LIMITED, priority 2003, published 2009).

Columns and labels:
rat-type OT7T022 = target: T1, rat-type OT7T022 (Rattus norvegicus, UniProt Q9EP86); experiment: Binding inhibiting activity using rat-type OT7T022-expressing CHO cell membrane fraction; conditions: iodine-labeled Y-RFRP-3 100 pM, membrane fraction 0.75 μg/well
T1 construct: expressed in transfected cells; host or cells: CHO cells (membrane fraction)
Experimental: Assessment of Binding Inhibiting Activity of Test Compound Using Rat-Type OT7T022-Expressing CHO Cell
A flask in which a rat-type OT7T022-expressing CHO cell had been cultured was washed with 5 mM EDTA/PBS, cells were peeled with 5 mM EDTA/PBS, and cells were recovered by centrifugation, suspended in 25 mL of a buffer for preparing a membrane fraction (50 mM Tris-HCl, pH 7.5, 5 mM EDTA, 0.5 mM PMSF (manufactured by Wako Pure Chemical Industries, Ltd.), […] (manufactured by Peptide Laboratory), 0.1 μg/mL pepstatin A (manufactured by Peptide Laboratory), 4 μg/mL E-64 (manufactured by Peptide Laboratory)), and homogenized on an ice using Polytron (12,000 rpm, 15 seconds×3 times). This was centrifuged in a high speed cooling centrifuge at 4° C. and 1,000 g for 10 minutes, and the supernatant was recovered. 25 mL of a buffer for preparing a membrane fraction was added to precipitates, and the supernatant was recovered by the same procedure. These supernatants were combined, subjected to a cell strainer, dispensed into tubes for a supercentrifuge, and centrifuged at 4° C. and 100,000 g for 1 hour. The pellet was suspended in a small amount of a buffer for preparing a membrane fraction, this was suspended using a Teflon (registered trade mark) homogenizer, a protein amount was measured using a part, and the remaining was dispensed, and stored at −80° C.
Using an assay buffer (50 mM Tris-HCl, pH 7.5, 5 mM EDTA, 0.5 mM PMSF, 20 μg/mL leupeptin, 0.1 μg/mL pepstatin A, 4 μg/mL E-64, 0.1% bovine serum albumin, 10 mM MgCl2), a membrane fraction of a rat-type OT7T022-expressing CHO cell was diluted to the final concentration of 0.75 μg/well, and iodine-labeled Y-RFRP-3 was diluted to the final concentration of 100 pM. Regarding a sample compound, a 10^−2M or 10^−3M stock solution was diluted with an assay buffer so that the final concentration became 10^−5M, 10^−6M, 10^−7M, 10^−8M, 10^−9M, 10^−10M or 10^−11M. For non-specific binding, hRFRP-3-8 having the final concentration of 10^−5M was prepared. Using a polypropylene 96-well plate, a prepared sample solution, a non-specific binding solution, and 50 μl of an assay buffer for total binding were dispensed, 25 μl of an iodine-labeled form diluent was added, the mixture was stirred, 25 μl of a rat-type OT7T022-expressing CHO cell membrane fraction solution was dispensed, and this was stirred, and incubated at room temperature for 1.5 hours. This was transferred to a unifilter (Perkin Elmer) pre-wetted with a washing buffer (50 mM Tris-HCl, pH 7.5) using a harvester for a 96-well plate (Packard), and this was washed with a washing buffer six times, and sufficiently dried. 50 μl of Microscinti O (Packard) was dispensed, radioactivity was measured with Top Count (Packard), and data were analyzed in a triplicate manner. Binding inhibiting activity (IC50 value) of a test compound for rat-type OT7T022 is shown in [Table 3].

RFRP-1-administered rats = experiment: Inhibitory activity of increase in blood glucose and blood glucagon concentration in RFRP-1-administered rats; assay type: in vivo, rat
ICR mouse = experiment: Analgesic activity in mouse, SP-it test method; assay type: in vivo; conditions: for Chewing time: counted for 1 minute
Experimental: Analgesic Activity in Mouse
Analgesic activity of an RFRP receptor antagonist on provisional pain caused by intrathecal injection (it administration) of substance P (SP) was investigated. In a test, one group (10 animals) of an ICR mouse (♂), 5 week old, was used. A skin of a back of a mouse was excised under ether anesthesia and, after 3 hours or longer recovering time, substance P (SP) was dissolved in a physiological saline, and this was administered by intrathecal injection (between L5-L6) at 10 ng/5 μL/mouse. A physiological saline and the compound of Example 50 were administered by intrathecal injection as a mixed solution with substance P (SP) at a dose of 1, 3 or 10 μg/mouse. From immediately after administration, the number of alternate chewing at a lower abdomen by a mouse was counted for 1 minute, and the time was used as an index for a provisional pain reaction due to substance P (SP).

human-type OT7T022 = target: T2, human-type OT7T022 (Homo sapiens, UniProt Q9GZQ6); experiment: Binding inhibiting activity using human-type OT7T022-expressing CHO cell; conditions: 125I-labeled Y-RFRP-3 100 pM, membrane fraction, room temperature 1.5 hours; read-out: IC50 value (binding inhibiting rate)
T2 construct: expressed in transfected cells; host or cells: CHO cells (membrane fraction)
Experimental: Assessment of Binding Inhibiting Activity of Test Compound Using Human-Type OT7T022-Expressing CHO Cell
Twenty μm of a peptide (Y-RFRP-3) (sequence: Tyr-Val-Pro-Asn-Leu-Pro-Gln-Arg-Phe-amide) (0.1 mM) in which a Tyr residue had been added to a N-terminus of hRFRP-3-8 (sequence: Val-Pro-Asn-Leu-Pro-Gln-Arg-Phe-amide) having binding inhibiting activity equivalent to that of endogenous human-type RFRP-3 (hRFRP-3-28) for human-type OT7T022-expressing CHO cell and 10 μl of distilled water were mixed, 20 μl of a lactoperoxidase solution (Sigma, prepared using 0.1 M HEPES-NaOH, pH 7.0 in 10 μg/mL), 10 μl of Iodine-125 (Amersham, IMS-30, 74 MBq), and 20 μl of 0.005% hydrogen peroxide (Wako Pure Chemical Industries, Ltd.) were successively mixed therein, the mixture was allowed to stand at room temperature for 10 minutes, 600 μl of 0.1% TFA-water was added, this was separated by reverse phase HPLC, a peak of the labeled form was collected, an equivalent amount of a buffer for a binding test (50 mM TrisHCl (pH 7.5), 0.1% BSA, 5 mM EDTA, 0.5 mM PMSF, 20 μg/mL leupeptin, 0.1 μg/mL pepstatin A, […]) was added, and this was immediately stored on ice. A part thereof was 1/100 diluted, radioactivity was measured with a γ-counter, and the remaining authentic product was distributed, which was stored at −30° C.
To a 96-well microplate were added 1 μg of a membrane fraction, a compound and Y-RFRP-3 labeled with ^125I, which had been diluted with a reaction buffer (50 mM Tris-HCl, 5 mM EDTA, 0.1% BSA, 0.5 mM PMSF, 20 μg/ml leupeptin, 0.1 μg/ml pepstatin A, 4 μg/ml E-64, 10 mM MgCl2, pH 7.5), to 100 pM to react them at room temperature for 1.5 hours. For measuring non-specific binding, non-labeled Y-RFRP-3 was further added to […]. Then, a membrane fraction was transferred to a unifilter GF/C (Perkin Elmer) by filtering the reaction mixture using a cell harvester (Perkin Elmer), and this was washed with a cooled 50 mM Tris buffer (pH 7.5) five times. The filter was dried, Microsinti (Packard) was added to the filter, and radioactivity was measured with Topcount (Packard).
A binding inhibiting rate (IC50 value) of a test compound is shown in [Table 1].

T1 sequence (Q9EP86 whole entry): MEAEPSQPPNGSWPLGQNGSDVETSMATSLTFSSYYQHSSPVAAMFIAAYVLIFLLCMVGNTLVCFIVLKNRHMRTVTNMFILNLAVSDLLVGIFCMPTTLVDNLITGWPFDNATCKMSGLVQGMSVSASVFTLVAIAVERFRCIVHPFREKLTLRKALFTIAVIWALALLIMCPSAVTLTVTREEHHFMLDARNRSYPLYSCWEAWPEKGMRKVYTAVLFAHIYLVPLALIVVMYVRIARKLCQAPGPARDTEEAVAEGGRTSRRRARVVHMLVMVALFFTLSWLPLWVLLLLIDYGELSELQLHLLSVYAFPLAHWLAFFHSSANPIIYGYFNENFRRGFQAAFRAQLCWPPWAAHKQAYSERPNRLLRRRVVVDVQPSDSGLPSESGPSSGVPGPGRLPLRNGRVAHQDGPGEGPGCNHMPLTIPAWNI
T2 sequence (Q9GZQ6 whole entry): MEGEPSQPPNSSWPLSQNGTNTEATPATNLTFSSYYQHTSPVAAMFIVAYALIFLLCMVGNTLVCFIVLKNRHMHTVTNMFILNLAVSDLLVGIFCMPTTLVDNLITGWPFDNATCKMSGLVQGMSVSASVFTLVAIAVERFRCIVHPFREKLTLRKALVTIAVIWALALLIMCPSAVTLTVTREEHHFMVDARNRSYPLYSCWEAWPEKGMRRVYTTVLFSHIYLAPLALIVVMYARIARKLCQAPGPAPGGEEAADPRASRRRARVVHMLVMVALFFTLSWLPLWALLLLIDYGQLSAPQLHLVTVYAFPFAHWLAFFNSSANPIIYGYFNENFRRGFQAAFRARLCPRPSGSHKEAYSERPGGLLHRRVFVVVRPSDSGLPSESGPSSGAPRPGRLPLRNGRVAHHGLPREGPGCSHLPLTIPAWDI

- IC50 (rat-type OT7T022): < 1 µM
- IC50 (human-type OT7T022): < 1 µM
Compound: COc1c(OCCCNCCCc2ccccc2)cccc1[C@H]1O[C@H](CC(=O)N2CCNCC2)C(=O)N(CC(C)(C)C)c2ccc(Cl)cc21.Cl.Cl (relative stereo) [Example 50, trans-7-Chloro-1-(2,2-dimethylpropyl)-5-(2-methoxy-3-{3-[(3-phenylpropyl)amino]propoxy}phenyl)-3-[2-oxo-2-(1-piperazinyl)ethyl]-1,5-dihydro-4,1-benzoxazepine-2(3H)-one dihydrochloride]
- inhibition of activity of increasing blood glucose concentration due to RFRP-1 (RFRP-1-administered rats; 5 mg/kg intravenous): inhibited significantly (p<0.01, n=4)
- inhibition of activity of increasing blood glucagon concentration due to RFRP-1 (RFRP-1-administered rats; 5 mg/kg intravenous, 2 minutes after administration of RFRP-1 (p<0.05)): significantly inhibited
- inhibition of activity of increasing blood glucagon concentration due to RFRP-1 (RFRP-1-administered rats; 5 mg/kg intravenous, 5 minutes after administration of RFRP-1 (p<0.001)): significantly inhibited
- inhibition of increase in blood glucagon concentration due to RFRP-1 (RFRP-1-administered rats; 0.2, 1 or 5 mg/kg intravenous 5 minutes before RFRP-1): inhibits increase in a blood glucagon concentration due to RFRP-1 in a dose dependent manner
- inhibition of increase in blood glucose concentration due to RFRP-1 (RFRP-1-administered rats; 0.2, 1 or 5 mg/kg intravenous 5 minutes before RFRP-1, vs control group): inhibits increase in a blood glucose concentration due to RFRP-1 in a dose dependent manner
- analgesic activity (pain reaction due to substance P) (ICR mouse; 1, 3 or 10 μg/mouse intrathecal): a pain reaction due to substance P (SP) is inhibited in a dose dependent manner
- Chewing time (ICR mouse; dose 1 μg/mouse intrathecal with substance P 10 ng/mouse): 71.8 ± 5.1
- Chewing time (ICR mouse; dose 3 μg/mouse intrathecal with substance P 10 ng/mouse): 18.6 ± 4.1
- Chewing time (ICR mouse; dose 10 μg/mouse intrathecal with substance P 10 ng/mouse): 0.0 ± 0.0
- decrease in the chewing time (ICR mouse; dose of 3 and 10 μg/mouse intrathecal): significant (p<0.01) decrease in the chewing time
